Experimental data reported in US5840684A, “Glycopeptide antibiotic derivatives” (Eli Lilly and Company, priority 1995, dated 1998).
Values after ≈ are worked out from the molar mass of the structure shown.

Experiments:
[1] = tested on: Staphylococcus aureus S13E; format: cell-based
Method: (§1) The MIC's were determined using a standard broth micro-dilution assay.

[2] = tested on: Staphylococcus aureus SA1199B; format: cell-based
Method: as §1

[3] = tested on: Entercoccus faecium 180-1; test: broth micro-dilution MIC; format: cell-based
Method: as §1

[4] = tested on: Entercoccus faecium 276; test: broth micro-dilution MIC; format: cell-based
Method: as §1

[5] = tested on: Staphylococcus aureus 446; test: broth micro-dilution MIC; format: cell-based
Method: as §1

[6] = tested on: Staphylococcus aureus 447; test: broth micro-dilution MIC; format: cell-based
Method: as §1

[7] = tested on: Staphylococcus aureus 489; test: broth micro-dilution MIC; format: cell-based
Method: as §1

[8] = tested on: Staphylococcus aureus 491; test: broth micro-dilution MIC; format: cell-based
Method: as §1

[9] = tested on: Staphylococcus aureus SA1199; test: broth micro-dilution MIC; format: cell-based
Method: as §1

[10] = tested on: Staphylococcus aureus X400; test: broth micro-dilution MIC; format: cell-based
Method: as §1

[11] = tested on: Staphylococcus aureus X778; test: broth micro-dilution MIC; format: cell-based
Method: as §1

[12] = tested on: Streptococcus pyogenes C203; test: broth micro-dilution MIC; format: cell-based
Method: as §1

[13] = tested on: Entercoccus faecium 180; test: broth micro-dilution MIC; format: cell-based; settings: Entercoccus faecium 180
Method: (§2) The formula I compounds have in vitro and in vivo activity against Gram-positive pathogenic bacteria. The MIC's were determined using a standard broth micro-dilution assay.

[14] = tested on: Entercoccus faecium 2041; test: broth micro-dilution MIC; format: cell-based; settings: Entercoccus faecium 2041
Method: as §2

[15] = tested on: Enterococcus gallinarum 245; test: broth micro-dilution MIC; format: cell-based; settings: Enterococcus gallinarum 245
Method: as §2

[16] = tested on: Staphylococcus epidermidis 270; test: broth micro-dilution MIC; format: cell-based
Method: as §2

[17] = tested on: Staphylococcus haemolyticus 105; test: broth micro-dilution MIC; format: cell-based
Method: as §2

[18] = tested on: Staphylococcus haemolyticus 415; test: broth micro-dilution MIC; format: cell-based
Method: as §2

[19] = tested on: Streptococcus pneumoniae P1; test: broth micro-dilution MIC; format: cell-based
Method: as §2

[20] = tested on: vancomycin-resistant enterococci; test: broth micro-dilution, mean geometric MIC; format: cell-based, Enterococcus faecium and Enterococcus faecalis; settings: enterococci, 24-hour incubation
[21] = tested on: vancomycin-susceptible enterococci; test: broth micro-dilution, mean geometric MIC; format: cell-based, Enterococcus faecium and Enterococcus faecalis; settings: enterococci, 24-hour incubation
[22] = tested on: Staphylococcus aureus SA1199A; test: broth micro-dilution MIC; format: cell-based
Method: as §1

Row | Structure (SMILES) | MIC [1] [µg/mL] | MIC [2] [µg/mL] | MIC [3] [µg/mL] | MIC [4] [µg/mL] | MIC [5] [µg/mL] | MIC [6] [µg/mL] | MIC [7] [µg/mL] | MIC [8] [µg/mL] | MIC [9] [µg/mL] | MIC [10] [µg/mL] | MIC [11] [µg/mL] | MIC [12] [µg/mL] | MIC [14] [µg/mL] | MIC [15] [µg/mL] | MIC [16] [µg/mL] | MIC [17] [µg/mL] | MIC [18] [µg/mL] | MIC [19] [µg/mL] | mean geometric MIC, Vancomycin Resistant Strains [20] [µg/mL] | mean geometric MIC, Vancomycin Sensitive Strains [21] [µg/mL] | further results
1 | CNC(CC(C)C)C(=O)NC1C(=O)NC(CC(N)=O)C(=O)NC2C(=O)NC3C(=O)NC(C(=O)NC(C(=O)O)c4cc(O)cc(O)c4-c4cc3ccc4O)C(OC3CC(C)(N)C(O)C(C)O3)c3ccc(c(Cl)c3)Oc3cc2cc(c3OC2OC(CO)C(O)C(O)C2OC2CC(C)(NCc3cccc(OCc4ccc5ccccc5n4)c3)C(O)C(C)O2)Oc2ccc(cc2Cl)C1O (stereo not shown) [Compound 125] | 1 (≈ 0.544 µM) | 2 (≈ 1.09 µM) | ≤ 0.06 | 2 (≈ 1.09 µM) | 4 (≈ 2.17 µM) | 2 (≈ 1.09 µM) | 2 (≈ 1.09 µM) | 1 (≈ 0.544 µM) | 0.5 (≈ 0.272 µM) | 1 (≈ 0.544 µM) | 2 (≈ 1.09 µM) | ≤ 0.06 | ≤ 0.06 | 12 (≈ 6.52 µM) | 1 (≈ 0.544 µM) | 4 (≈ 2.17 µM) | 2 (≈ 1.09 µM) | ≤ 0.06 | 3.4 | 0.14 | MIC [13]: 1 µg/mL (≈ 0.544 µM)
2 | CNC(CC(C)C)C(=O)NC1C(=O)NC(CC(N)=O)C(=O)NC2C(=O)NC3C(=O)NC(C(=O)NC(C(=O)O)c4cc(O)cc(O)c4-c4cc3ccc4O)C(OC3CC(C)(N)C(O)C(C)O3)c3ccc(c(Cl)c3)Oc3cc2cc(c3OC2OC(CO)C(O)C(O)C2OC2CC(C)(NCc3ccc4c(c3O)Cc3ccccc3-4)C(O)C(C)O2)Oc2ccc(cc2Cl)C1O (stereo not shown) [Compound 103] | 1 (≈ 0.56 µM) | 2 (≈ 1.12 µM) | ≤ 0.06 | 0.25 (≈ 0.14 µM) | 0.5 (≈ 0.28 µM) | 1 (≈ 0.56 µM) | ≤ 0.06 | 1 (≈ 0.56 µM) | 1 (≈ 0.56 µM) | ≤ 0.06 | 0.5 (≈ 0.28 µM) | ≤ 0.06 | ≤ 0.06 | 8 (≈ 4.48 µM) | 1 (≈ 0.56 µM) | 4 (≈ 2.24 µM) | 8 (≈ 4.48 µM) | ≤ 0.06 | 4.0 | 0.33 | MIC [22]: ≤ 0.06 µg/mL
3 | CNC(CC(C)C)C(=O)NC1C(=O)NC(CC(N)=O)C(=O)NC2C(=O)NC3C(=O)NC(C(=O)NC(C(=O)O)c4cc(O)cc(O)c4-c4cc3ccc4O)C(OC3CC(C)(N)C(O)C(C)O3)c3ccc(c(Cl)c3)Oc3cc2cc(c3OC2OC(CO)C(O)C(O)C2OC2CC(C)(NCc3ccc(OCCCC#N)cc3)C(O)C(C)O2)Oc2ccc(cc2Cl)C1O (stereo not shown) [Compound 55] | 0.5 (≈ 0.283 µM) | 0.5 (≈ 0.283 µM) | ≤ 0.06 | 0.5 (≈ 0.283 µM) | 0.5 (≈ 0.283 µM) | 4 (≈ 2.27 µM) | 1 (≈ 0.566 µM) | 0.5 (≈ 0.283 µM) | 0.5 (≈ 0.283 µM) | ≤ 0.06 | 0.5 (≈ 0.283 µM) | ≤ 0.06 | 0.125 (≈ 0.0708 µM) |  | 1 (≈ 0.566 µM) | 4 (≈ 2.27 µM) |  | ≤ 0.06 | 13 | 1.7 | MIC [22]: ≤ 0.06 µg/mL; MIC [13]: 2 µg/mL (≈ 1.13 µM)
4 | CNC(CC(C)C)C(=O)NC1C(=O)NC(CC(N)=O)C(=O)NC2C(=O)NC3C(=O)NC(C(=O)NC(C(=O)O)c4cc(O)cc(O)c4-c4cc3ccc4O)C(OC3CC(C)(N)C(O)C(C)O3)c3ccc(c(Cl)c3)Oc3cc2cc(c3OC2OC(CO)C(O)C(O)C2OC2CC(C)(NCc3cccc(Oc4ccc(C(F)(F)F)cc4)c3)C(O)C(C)O2)Oc2ccc(cc2Cl)C1O (stereo not shown) [Compound 132] | 2 (≈ 1.09 µM) | 2 (≈ 1.09 µM) | ≤ 0.06 | 1 (≈ 0.543 µM) | 1 (≈ 0.543 µM) | 2 (≈ 1.09 µM) | 1 (≈ 0.543 µM) | 0.5 (≈ 0.271 µM) | 1 (≈ 0.543 µM) | 1 (≈ 0.543 µM) | 2 (≈ 1.09 µM) | ≤ 0.06 | 1 (≈ 0.543 µM) | 2 (≈ 1.09 µM) | 2 (≈ 1.09 µM) | 1 (≈ 0.543 µM) | 2 (≈ 1.09 µM) | ≤ 0.06 | 1.2 | 0.048 | 
5 | CNC(CC(C)C)C(=O)NC1C(=O)NC(CC(N)=O)C(=O)NC2C(=O)NC3C(=O)NC(C(=O)NC(C(=O)O)c4cc(O)cc(O)c4-c4cc3ccc4O)C(OC3CC(C)(N)C(O)C(C)O3)c3ccc(c(Cl)c3)Oc3cc2cc(c3OC2OC(CO)C(O)C(O)C2OC2CC(C)(NCc3ccc(OCCC4CCCCC4)cc3)C(O)C(C)O2)Oc2ccc(cc2Cl)C1O (stereo not shown) [Compound 127] | 2 (≈ 1.11 µM) | 2 (≈ 1.11 µM) | ≤ 0.06 | ≤ 0.06 | 1 (≈ 0.553 µM) | 2 (≈ 1.11 µM) | 2 (≈ 1.11 µM) | 1 (≈ 0.553 µM) | 2 (≈ 1.11 µM) | 2 (≈ 1.11 µM) | 1 (≈ 0.553 µM) | ≤ 0.06 | ≤ 0.06 | 4 (≈ 2.21 µM) | ≤ 0.06 | 2 (≈ 1.11 µM) | 4 (≈ 2.21 µM) | ≤ 0.06 | 1.2 | 0.33 | MIC [13]: ≤ 0.06 µg/mL
6 | CNC(CC(C)C)C(=O)NC1C(=O)NC(CC(N)=O)C(=O)NC2C(=O)NC3C(=O)NC(C(=O)NC(C(=O)O)c4cc(O)cc(O)c4-c4cc3ccc4O)C(OC3CC(C)(N)C(O)C(C)O3)c3ccc(c(Cl)c3)Oc3cc2cc(c3OC2OC(CO)C(O)C(O)C2OC2CC(C)(NCc3ccc(OC)c4ccccc34)C(O)C(C)O2)Oc2ccc(cc2Cl)C1O (stereo not shown) [Compound 15] | 0.5 (≈ 0.284 µM) | 0.25 (≈ 0.142 µM) | ≤ 0.06 | ≤ 0.06 | 1 (≈ 0.567 µM) | 2 (≈ 1.13 µM) | ≤ 0.06 | 0.25 (≈ 0.142 µM) | 0.25 (≈ 0.142 µM) | 0.25 (≈ 0.142 µM) | 0.25 (≈ 0.142 µM) | ≤ 0.06 | ≤ 0.06 | ≤ 0.06 | 1 (≈ 0.567 µM) | 0.5 (≈ 0.284 µM) | 2 (≈ 1.13 µM) | ≤ 0.06 | 6.7 | 0.14 | MIC [13]: 0.5 µg/mL (≈ 0.284 µM)
